Consider 10 compounds from ChEMBL document CHEMBL1201862, “PubChem BioAssay data set” (2004).

Activity calls are given as the source filed them. Where only a bound is given, the exact number is not on record here.

Assay [1] deals with Streptococcus. The assay is described as follows: GAS UMAA2166 growth inhibition – luminescence, BacTiterGlo, counter-screen for streptokinase expression inhibitor project, dose response (AID 1915).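 Also: potency for reduction of bacterial viability or growth.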 Type of assay: functional, organism-based. (In general: A counterscreen serves to expose hits that act by an unwanted route or on another target.)
Assay [2] addresses Photoreceptor-specific nuclear receptor (Homo sapiens, UniProt Q9Y5X4). It is filed as functional, cell-based.
The test system of assay [3] is Streptococcus sp. 'group A'. In words: Streptococcus pyogenes SK(-)GAS viability under kanamycin – luminescence, BacTiterGlo, confirmation, counter-screen for streptokinase expression inhibitor project, dose response (AID 1900). Type of assay: functional, organism-based.
Assay [4] addresses Prothrombin (Bos taurus, UniProt P00735). In words: thrombin protease inhibitors – biochemical, fluorescence polarization, uHTS hits, dose response (AID 602369). Type of assay: functional. (In general: Polarisation of emitted light reports the rotation of a fluorescent probe.)
The target in assay [5] is 26S proteasome non-ATPase regulatory subunit 14 (Homo sapiens, UniProt O00487). The assay is described as follows: inhibition of proteasome subunit RPN11 – biochemical, fluorescence polarization, uHTS hits, confirmation (AID 602368). It is filed as functional.
For assay [6], the target named is 72 kDa type IV collagenase (Homo sapiens, UniProt P08253). The assay is described as follows: Dose Response validation of uHTS RPN11 inhibitor hits using a MMP-2 Fluorescence assay. Type of assay: functional.
Assay [7] deals with ATP-dependent molecular chaperone HSP82 (Candida albicans (strain WO-1) (Yeast), UniProt C4YTQ8). In words: steroid-induced GRE reporter decrease in yeast – S. cerevisiae, luminescence, Hsp90 inhibitor project, dose response (AID 2400).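 Also: beta-galactosidase luminescence from glucocorticoid response element reporter as proxy for Hsp90 function; inhibitor potency where signal loss means Hsp90 inhibition.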 It is filed as functional, cell-based.
Assay [8] is described as follows: NIH-3T3 fibroblast cytotoxicity, dose response, cytotoxicity control, cell-based, fluorescence, Alamar Blue, secondary assay (AID 2327).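 Also: NIH-3T3 mouse fibroblasts cultured with fluconazole at 8 µg/mL.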 Type of assay: functional. Background: Resazurin is reduced to fluorescent resorufin, in cell work by metabolically active cells.
For assay [9], the target named is Nonstructural protein 1 (Influenza A virus, UniProt Q194T2). It is filed as functional, Influenza A virus (A/California/07/2009(H1N1)).
The nature of assay [10]: fluconazole-exposed Candida albicans growth modulators – fluorescence, retest, confirmation (AID 2467). Type of assay: functional, cell-based.
Assay [11] has as its target T1, Serine/threonine-protein phosphatase (Candida dubliniensis (strain CD36 / CBS 7987 / NCPF 3949 / NRRLY-17841) (Yeast), UniProt B9W6M3).
T1 sequence (B9W6M3 whole entry): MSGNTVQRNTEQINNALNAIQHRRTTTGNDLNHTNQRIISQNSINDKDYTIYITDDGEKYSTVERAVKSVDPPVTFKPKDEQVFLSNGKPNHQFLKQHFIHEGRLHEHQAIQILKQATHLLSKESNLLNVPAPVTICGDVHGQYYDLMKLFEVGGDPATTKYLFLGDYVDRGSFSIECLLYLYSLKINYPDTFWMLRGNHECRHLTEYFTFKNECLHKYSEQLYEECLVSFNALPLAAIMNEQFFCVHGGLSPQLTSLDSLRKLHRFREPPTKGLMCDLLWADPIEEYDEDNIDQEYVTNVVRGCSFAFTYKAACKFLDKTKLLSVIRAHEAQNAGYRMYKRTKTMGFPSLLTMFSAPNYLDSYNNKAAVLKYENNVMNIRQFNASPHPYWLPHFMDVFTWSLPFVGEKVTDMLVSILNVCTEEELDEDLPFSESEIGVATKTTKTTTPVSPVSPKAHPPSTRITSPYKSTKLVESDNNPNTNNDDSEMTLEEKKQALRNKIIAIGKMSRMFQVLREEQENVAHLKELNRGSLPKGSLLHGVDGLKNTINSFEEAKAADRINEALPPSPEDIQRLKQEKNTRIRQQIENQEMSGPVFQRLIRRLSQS
In words: blockers of CaCl2-induced CDRE-lacZ signaling – S. cerevisiae, luminescence, secondary, dose response (AID 2388).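 Also: yeast reporter cells carrying a calcineurin-responsive lacZ construct stimulated with calcium chloride; luminescent beta-galactosidase reporter signal in whole cells rather than isolated phosphatase activity; potency for inhibition where a drop in reporter signal means calcineurin blockade.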 It is filed as functional, cell-based.

The subject of assay [12] is Escherichia coli. The assay is described as follows: microbe, parasite or virus in culture.
The target in assay [13] is T2, Sentrin-specific protease 1 (Homo sapiens, UniProt Q9P0U3).
T2 sequence (Q9P0U3 whole entry): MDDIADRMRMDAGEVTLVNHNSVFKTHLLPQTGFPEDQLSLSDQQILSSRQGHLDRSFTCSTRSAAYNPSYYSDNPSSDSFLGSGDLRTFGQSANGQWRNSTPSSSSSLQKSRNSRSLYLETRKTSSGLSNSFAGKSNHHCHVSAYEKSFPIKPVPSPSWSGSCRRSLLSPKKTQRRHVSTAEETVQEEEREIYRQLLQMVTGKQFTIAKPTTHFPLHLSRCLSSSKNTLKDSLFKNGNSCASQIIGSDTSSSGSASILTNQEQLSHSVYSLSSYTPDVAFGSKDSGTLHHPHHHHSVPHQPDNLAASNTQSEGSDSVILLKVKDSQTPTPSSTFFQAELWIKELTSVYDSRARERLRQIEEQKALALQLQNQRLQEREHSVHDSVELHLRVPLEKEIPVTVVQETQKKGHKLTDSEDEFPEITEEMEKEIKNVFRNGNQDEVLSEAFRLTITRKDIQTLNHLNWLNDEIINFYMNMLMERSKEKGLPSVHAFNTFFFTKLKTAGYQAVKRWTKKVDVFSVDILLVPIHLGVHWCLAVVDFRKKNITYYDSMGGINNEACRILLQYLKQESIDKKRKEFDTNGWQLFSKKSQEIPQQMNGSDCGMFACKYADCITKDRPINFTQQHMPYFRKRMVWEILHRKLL
The assay is described as follows: Dose response confirmation of small molecule inhibitors of the catalytic domain of the SUMO protease, SENP1 in a FRET assay. Type of assay: functional. Particulars: read-out: IC50_Mean.

For assay [14], the target named is T2, Sentrin-specific protease 1. In words: SENP1 catalytic domain blockers, concentration series – biochemical, kinetic FRET, dose response (AID 651697). It is filed as functional. Particulars: read-out: IC50_Mean.
The nature of assay [15]: Luminescence Cell-Based Dose Retest to Confirm Inhibitors of Cancer Stem Cells. [Related pubchem assays (depositor defined):AID2717, AID2721]. Type of assay: functional. Particulars: Homo sapiens.
Assay [16] is described as follows: loss of viability in HepG2 cells – cell-based, CellTiter-Glo, cherry-picked, cytotoxicity control for Shn3 inhibitor project, dose response (AID 624134). It is filed as functional.
Assay [17] can be described thus: Trypanosoma cruzi growth suppression in host cells – NIH3T3 host cells, beta-gal luminescence, confirmation (AID 2044).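 Also: intracellular parasites grown in NIH/3T3 mouse fibroblasts as host cells; luminescent beta-galactosidase reporter signal from transgenic T. cruzi replicating inside host cells; inhibitors lower the luminescence signal.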 Type of assay: functional, cell-based.
Assay [18] can be described thus: reduction of Shn3 3'UTR-driven luciferase in osteoblasts – cell-based, Clone20 osteoblasts, firefly luciferase, cherry-picked, dose response (AID 624132).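 Also: firefly luciferase luminescence from reporter carrying the Shn3 3'UTR in osteoblasts.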 It is filed as functional.
Assay [19] has as its system A-375. The assay is described as follows: MITF: Counter assay: A375 proliferation Measured in Cell-Based System Using Plate Reader - 2084-03_Inhibitor_Dose_DryPowder_Activity. [Related pubchem assays (depositor defined):AID488944]. It is filed as functional. Particulars: Homo sapiens.
The nature of assay [20]: THP-1 cell cytotoxicity, dose response, cytotoxicity control for non-replicating M. tuberculosis project (AID 489025). It is filed as functional.
A short description of assay [21]: NIH3T3 cell viability loss – ATP luminescence, mouse fibroblasts, counter-screen, dose response (AID 2010).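 Also: cells exposed to compound for about 90 hours before reading.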 Type of assay: functional, cell-based.
In assay [22] the target is T3, Microphthalmia-associated transcription factor (Homo sapiens, UniProt O75030).
T3 sequence (O75030 whole entry): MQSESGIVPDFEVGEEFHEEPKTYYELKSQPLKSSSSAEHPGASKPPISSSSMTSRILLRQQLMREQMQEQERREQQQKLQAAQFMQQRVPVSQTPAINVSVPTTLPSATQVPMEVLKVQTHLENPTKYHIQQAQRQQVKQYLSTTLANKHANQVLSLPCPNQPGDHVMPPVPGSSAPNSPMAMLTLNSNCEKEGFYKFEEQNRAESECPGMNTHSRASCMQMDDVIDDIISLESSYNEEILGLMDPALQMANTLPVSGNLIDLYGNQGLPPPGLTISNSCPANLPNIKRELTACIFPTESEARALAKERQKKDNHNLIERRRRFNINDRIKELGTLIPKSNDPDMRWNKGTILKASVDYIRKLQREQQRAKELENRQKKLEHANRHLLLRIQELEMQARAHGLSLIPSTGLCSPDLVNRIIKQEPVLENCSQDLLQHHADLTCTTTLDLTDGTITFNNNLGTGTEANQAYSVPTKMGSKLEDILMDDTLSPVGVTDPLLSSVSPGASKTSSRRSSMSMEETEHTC
The assay is described as follows: reducers of TRPM1 reporter luminescence, concentration series – cell-based, SK-MEL-5, cherry-picked, set 3, MITF inhibitor project, dose response (AID 493073).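 Also: SK-MEL-5 melanoma cells with luciferase driven by the MITF target TRPM1 promoter.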 It is filed as functional.

A short description of assay [23]: Vero E6 cell cytotoxicity, dose response, cytotoxicity control for non-replicating M. tuberculosis project, secondary assay (AID 492998). It is filed as functional, VeroE6. Particulars: Vero C1008.
Assay [24] in a line: HepG2 cell cytotoxicity, dose response, cytotoxicity control for non-replicating M. tuberculosis project (AID 489018). Particulars: Mycobacterium tuberculosis. It is filed as functional.
The test system of assay [25] is INS1. In words: INS-1E survival protection against cytokine death – cell-based, luminescence, retest, dose response (AID 449756).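 Also: cell death triggered by IL-1 beta plus TNF-alpha plus IFN-gamma mixture; protective hits raise ATP signal compared with cytokine alone wells.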 It is filed as functional. Particulars: Rattus norvegicus.
Assay [26] is described as follows: non-specific 3'UTR reporter inhibition in Clone20-Shn3RL – cell-based, Renilla luciferase, cherry-picked, counter-screen for Shn3 inhibitor project, dose response (AID 624133). It is filed as functional.
The nature of assay [27]: cells. It is filed as functional.
A short description of assay [28]: viability loss in HeLa cells – cytotoxicity control for MgcRacGAP inhibitor project, dose response (AID 624300). Type of assay: functional.
Assay [29] addresses Protein Wnt-3a (Mus musculus, UniProt P27467). In words: antagonism of Wnt3a pathway luciferase reporter – Wnt-LIGHT cells, luminescence, selectivity assay for Gli-SUFU antagonist project, dose response (AID 651570).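 Also: Wnt-LIGHT reporter cells stimulated with conditioned medium from Wnt3a-producing cells.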 Particulars: read-out: IC50_Mean. Type of assay: functional.
Assay [30] in a line: microbe, parasite or virus in culture. It is filed as functional. Particulars: Mycobacterium tuberculosis.
Assay [31] has as its target Beta-galactosidase (Escherichia coli, UniProt Q8VNN2). In words: Dose response counterscreen for EBI2 assay utilizing the enzyme, b-galactosidase. It is filed as functional.

What is called EC50 is the concentration giving half of the maximal effect. What is called AC50 is the concentration giving half of the maximal activity seen.

72 kDa type IV collagenase, sequence (P08253 whole entry): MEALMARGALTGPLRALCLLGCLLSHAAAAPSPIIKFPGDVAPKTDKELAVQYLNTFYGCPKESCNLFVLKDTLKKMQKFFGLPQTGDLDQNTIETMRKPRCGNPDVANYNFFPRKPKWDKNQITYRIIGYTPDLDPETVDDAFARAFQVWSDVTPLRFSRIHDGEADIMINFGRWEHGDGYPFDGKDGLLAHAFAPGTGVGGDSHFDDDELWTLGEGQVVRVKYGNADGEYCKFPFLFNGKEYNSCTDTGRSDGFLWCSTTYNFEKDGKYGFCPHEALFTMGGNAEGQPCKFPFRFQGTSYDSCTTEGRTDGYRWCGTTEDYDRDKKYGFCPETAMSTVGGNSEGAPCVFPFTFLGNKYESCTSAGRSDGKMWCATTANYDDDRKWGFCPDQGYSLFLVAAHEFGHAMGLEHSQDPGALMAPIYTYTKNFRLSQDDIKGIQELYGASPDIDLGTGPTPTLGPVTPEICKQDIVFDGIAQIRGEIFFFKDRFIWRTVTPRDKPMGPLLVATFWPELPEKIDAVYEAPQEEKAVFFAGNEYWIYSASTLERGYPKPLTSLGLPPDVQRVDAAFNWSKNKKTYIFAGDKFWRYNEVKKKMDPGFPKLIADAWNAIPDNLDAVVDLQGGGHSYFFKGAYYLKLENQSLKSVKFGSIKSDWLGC
Photoreceptor-specific nuclear receptor, sequence (Q9Y5X4 whole entry): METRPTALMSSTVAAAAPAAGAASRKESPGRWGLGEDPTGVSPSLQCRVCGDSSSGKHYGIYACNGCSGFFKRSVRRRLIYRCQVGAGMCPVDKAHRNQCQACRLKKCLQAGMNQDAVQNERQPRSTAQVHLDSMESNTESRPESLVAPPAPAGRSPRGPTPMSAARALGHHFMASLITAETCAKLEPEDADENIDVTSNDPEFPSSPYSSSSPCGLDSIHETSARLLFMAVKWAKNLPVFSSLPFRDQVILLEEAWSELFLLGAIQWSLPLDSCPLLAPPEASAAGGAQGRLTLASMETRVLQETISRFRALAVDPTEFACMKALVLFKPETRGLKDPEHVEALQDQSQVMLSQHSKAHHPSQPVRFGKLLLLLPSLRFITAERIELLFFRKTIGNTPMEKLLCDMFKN
Protein Wnt-3a, sequence (P27467 whole entry): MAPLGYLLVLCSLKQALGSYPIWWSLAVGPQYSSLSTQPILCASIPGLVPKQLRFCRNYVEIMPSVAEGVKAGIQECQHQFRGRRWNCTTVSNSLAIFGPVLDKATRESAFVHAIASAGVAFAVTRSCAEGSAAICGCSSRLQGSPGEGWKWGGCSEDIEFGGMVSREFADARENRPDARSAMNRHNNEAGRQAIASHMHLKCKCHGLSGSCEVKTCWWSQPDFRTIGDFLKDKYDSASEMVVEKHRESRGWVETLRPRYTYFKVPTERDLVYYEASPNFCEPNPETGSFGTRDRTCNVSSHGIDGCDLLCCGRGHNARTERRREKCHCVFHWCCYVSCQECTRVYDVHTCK
26S proteasome non-ATPase regulatory subunit 14, sequence (O00487 whole entry): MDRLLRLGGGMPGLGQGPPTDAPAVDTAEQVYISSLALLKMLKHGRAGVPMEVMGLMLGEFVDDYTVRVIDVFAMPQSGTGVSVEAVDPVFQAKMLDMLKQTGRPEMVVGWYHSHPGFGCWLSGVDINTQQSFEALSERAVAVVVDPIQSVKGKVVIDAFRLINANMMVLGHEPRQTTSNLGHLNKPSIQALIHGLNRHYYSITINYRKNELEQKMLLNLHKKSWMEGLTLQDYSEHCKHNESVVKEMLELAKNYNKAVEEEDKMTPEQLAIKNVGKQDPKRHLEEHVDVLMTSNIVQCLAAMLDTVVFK
Nonstructural protein 1, sequence (Q194T2 whole entry): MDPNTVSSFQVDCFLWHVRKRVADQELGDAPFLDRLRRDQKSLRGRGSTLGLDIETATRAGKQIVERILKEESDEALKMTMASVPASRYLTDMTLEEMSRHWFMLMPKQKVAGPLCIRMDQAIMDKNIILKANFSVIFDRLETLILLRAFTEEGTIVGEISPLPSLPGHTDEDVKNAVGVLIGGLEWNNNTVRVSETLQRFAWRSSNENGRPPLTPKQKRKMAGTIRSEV
ATP-dependent molecular chaperone HSP82, sequence (C4YTQ8 whole entry): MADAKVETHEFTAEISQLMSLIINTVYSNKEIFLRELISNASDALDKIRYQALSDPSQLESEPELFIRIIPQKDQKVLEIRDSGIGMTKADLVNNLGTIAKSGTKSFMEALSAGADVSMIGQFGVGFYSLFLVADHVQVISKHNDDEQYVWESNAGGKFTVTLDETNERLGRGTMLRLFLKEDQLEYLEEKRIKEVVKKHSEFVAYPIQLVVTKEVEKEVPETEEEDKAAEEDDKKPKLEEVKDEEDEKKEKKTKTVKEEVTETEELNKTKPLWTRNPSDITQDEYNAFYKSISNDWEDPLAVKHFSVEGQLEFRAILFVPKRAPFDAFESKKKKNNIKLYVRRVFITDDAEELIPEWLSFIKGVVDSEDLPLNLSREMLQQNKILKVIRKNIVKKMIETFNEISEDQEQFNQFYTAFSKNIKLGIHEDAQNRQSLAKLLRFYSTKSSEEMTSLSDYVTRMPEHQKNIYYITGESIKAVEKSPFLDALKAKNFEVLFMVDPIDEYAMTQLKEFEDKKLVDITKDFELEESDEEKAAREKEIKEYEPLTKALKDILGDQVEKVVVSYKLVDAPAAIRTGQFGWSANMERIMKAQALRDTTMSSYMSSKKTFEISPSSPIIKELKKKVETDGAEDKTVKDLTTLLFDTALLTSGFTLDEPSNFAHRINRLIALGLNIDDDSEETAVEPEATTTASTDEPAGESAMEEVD
Beta-galactosidase, sequence (Q8VNN2 whole entry): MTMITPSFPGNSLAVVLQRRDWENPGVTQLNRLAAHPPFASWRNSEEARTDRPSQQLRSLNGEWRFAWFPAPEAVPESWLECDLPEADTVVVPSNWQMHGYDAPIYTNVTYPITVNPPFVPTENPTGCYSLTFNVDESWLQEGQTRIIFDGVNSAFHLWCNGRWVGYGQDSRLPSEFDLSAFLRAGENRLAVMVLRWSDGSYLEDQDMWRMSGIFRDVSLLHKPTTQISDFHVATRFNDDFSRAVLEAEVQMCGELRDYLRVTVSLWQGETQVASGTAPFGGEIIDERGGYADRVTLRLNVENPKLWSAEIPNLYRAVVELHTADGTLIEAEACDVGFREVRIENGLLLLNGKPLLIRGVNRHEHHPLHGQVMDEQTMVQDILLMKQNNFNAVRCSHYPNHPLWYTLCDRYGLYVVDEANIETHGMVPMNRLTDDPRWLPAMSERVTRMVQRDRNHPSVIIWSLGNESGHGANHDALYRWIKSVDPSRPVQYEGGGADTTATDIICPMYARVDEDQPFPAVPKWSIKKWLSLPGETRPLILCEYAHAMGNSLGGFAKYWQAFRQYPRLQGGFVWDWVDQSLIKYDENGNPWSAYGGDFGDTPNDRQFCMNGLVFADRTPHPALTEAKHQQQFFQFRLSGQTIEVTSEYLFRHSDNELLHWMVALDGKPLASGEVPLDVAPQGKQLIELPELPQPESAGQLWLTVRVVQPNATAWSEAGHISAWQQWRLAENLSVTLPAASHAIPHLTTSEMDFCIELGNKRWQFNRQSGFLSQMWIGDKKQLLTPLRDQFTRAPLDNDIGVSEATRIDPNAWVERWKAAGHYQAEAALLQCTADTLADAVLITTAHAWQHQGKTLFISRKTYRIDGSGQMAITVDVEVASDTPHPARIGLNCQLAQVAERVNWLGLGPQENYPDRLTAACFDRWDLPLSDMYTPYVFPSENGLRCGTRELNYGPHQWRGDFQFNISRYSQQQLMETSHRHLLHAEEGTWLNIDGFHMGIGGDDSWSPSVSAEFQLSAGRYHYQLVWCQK

Regarding `CC(=O)c1c(O)cc(O)c(C(C)=O)c1O`, the half-maximal effective concentration (EC50) in [1] is 3.98 µM (active); in assay [3], 3.9 µM (active). Further, the IC50 in assay [2] was 3.24 µM (active).

For `CCC(=O)NC(c1cccs1)c1cc([N+](=O)[O-])c2cccnc2c1O` (stereo unspecified), the IC50 in [4] was > 100 µM (inactive); in assay [5] it was 40.3 µM (active); in assay [6], 5.91 µM (active); in assay [9] it was 6.66 µM (active); in assay [2] it was 2.47 µM (active). Further, the EC50 in [7] was 24 µM (active); in [8], 33.6 µM (active); in [10], 0.185 µM (active); in [11] it was > 180 µM (inactive).

On to `CCCn1c(=N)c(S(=O)(=O)c2ccc(F)cc2)cc2c(=O)n3cccc(C)c3nc21`, for which the AC50 in assay [12] was 42.8 µM (active).

Regarding `COc1cc(/C=C2\CCCc3c2nc2ccccc2c3C(=O)O)cc(Cl)c1O`, the IC50 in assay [13] was 2.96 µM (active); in assay [14], 4.82 µM (active).

Take `Cc1ccn2c(Nc3ccccc3)c(-c3ccccn3)nc2c1`: the AC50 in [15] was 4.95 µM (active); in assay [16], 7.07 µM (active); in [18] it was 2.31 µM (active); in [19], 38.1 µM (active); in assay [22], 9.31 µM (active); in [25], 5.31 µM (active). Moreover, the AC50 in [26] is 3.25 µM (active). Further, the EC50 was 1.16 µM (active) in [17] and 2.91 µM (active) in assay [21]. Besides, the CC50 was 6.44 µM (active) in assay [20], 4.64 µM (active) in assay [23], > 20 µM (active) in assay [24] and 50 µM (active) in assay [28]. In addition, the IC50 in assay [27] is 3.88 µM (active).

With `COc1ccc(N2C(=O)C3C4C=CC(C4)C3C2=O)nn1` (stereo unspecified), in assay [12], the AC50 is 26.5 µM (active).

With `COc1cccc(NC2=Nc3cccc4cccc2c34)c1`, the IC50 is 37.8 µM (active) in assay [4]; 41.3 µM (inactive) in assay [13]; 27.6 µM (active) in assay [5]; > 100 µM (inactive) in assay [6]; 27.7 µM (inactive) in assay [14].

With `COc1ccc(CNc2cc(C)nc3ncnn23)c(OC)c1`, the IC50 in assay [29] was 4.21 µM (active).

As to `CCOC(=O)c1ccc(/N=c2\sc(C(=O)OC)cc(=O)n2CCCN2CCOCC2)cc1`, the CC50 in assay [30] was > 40 µM (active). Besides, in [31], the IC50 is > 80 µM (inactive).

Consider `CCCCCCCN1C2=NCCCN2c2ccccc21`, for which the AC50 in assay [16] was 46 µM (active); in assay [26], 11.8 µM (active). Further, the IC50 in [29] was 12.6 µM (active).
